“Also recorded” adds a separate entry of the source.
Legend:
[1] = tested on: S. feltiae; assay: Ascaroside function (Table 12), S. feltiae; format: in vivo, Steinernema feltiae
Procedure: (§1) Various ascarosides and ascaroside blends were administered to various nematodes described below (Table 12). […] A very strong result of affecting nematode behavior is designated in the table as “strong.”

[2] = tested on: S. glaseri; assay: Ascaroside function (Table 12), S. glaseri; format: in vivo
Procedure: as §1

[3] = tested on: several of the tested nematode species; assay: Retention assay, across species; format: in vivo; conditions: 1 nM, 1 μM and 1 mM tested
Procedure: OP50 E. coli was grown on a standard 5 cm agar plate (made with standard Nematode Growth Medium). The bacterial lawn was 16 mm in diameter and was grown overnight at 20° C. before being used in trials. Two 4 mm spots (0.6 μL) were placed on opposite sides of the bacterial lawn (using a transparent template to guide spot placement), and several minutes elapsed for the liquid to settle in before placing nematodes down on the assay. Recording began immediately upon worm placement. 0.6 μL of the control was placed on one side of the lawn, and 0.6 μL of the experimental cue was placed on the other side of the lawn, changing the location of the cue throughout trials between left/right and top/bottom to avoid bias.
Nematodes were isolated by gender at the L4 stage the day before being used in trials as developed adults. Worms were evenly divided and placed at two points equidistant from the foci of the scoring region. Trials were recorded for 20 minutes, and frames were collected for analysis at 1 frame per second. Results were averaged from at least three different trials. For every nematode species in this study, a different total number of worms (using water in both scoring regions) was tested to determine the minimum number of worms necessary for consistent unbiased results over a 20 minute trial. The total number of worms used in the multiple species assays depended on that species' optimal parameters. 10 worms were used for P. redivivus males and females, 20 worms were used for C. elegans males and O. dolichuridae males, and 14 worms were used for S. glaseri males. The Automated Software was used to compare worm occupancy in each scoring region over time, and the Chemotaxis Index (Bargmann et al., Cell 74:515-27 (1993), which is hereby incorporated by reference in its entirety) was adapted to score preference or avoidance to each ascaroside.
A video camera attached to the microscope produced a digital video stream, which was then analyzed. The ratio of the time the average worm spent in each region of interest was calculated for every trial. For ease of implementation, all worms in a single experiment were assumed to be roughly the same size. Thus worm pixels were counted instead of whole worms, allowing fractions of a worm in the region of interest to be taken into account. It also eliminated the need for a shape-based worm identification algorithm, and allowed each frame to be analyzed independently. A band-pass filter was applied to each frame to eliminate the effect of uneven lighting and also accentuate the worms against the background. The worm was then identified after thresholding the filtered image. Throughout each experiment, the locations and sizes of the regions of interest were known. Through the filtering described above, it is known which pixels are occupied by worms and which ones are not. Thus, the ratio of worm-pixels to all pixels inside the region of interest can be calculated to produce the worm-occupancy ratio. This calculation was done for every frame, giving a plot output of worm-occupancy ratio vs. time for each region.

[4] = tested on: C. elegans males; assay: Attraction assay (long-range, point source); conditions: in vivo
Procedure: 10 cm standard chemotaxis plates were prepared (Bargmann et al., Cell 74:515-27 (1993), which is hereby incorporated by reference in its entirety) and stored at 4° C. until the day before use. Standard 1 cm-diameter copper pipes were sectioned into 1 cm-tall segments to use for the holding chambers. The females/hermaphrodites were isolated overnight, washed 3 times in M9 buffer, and then allowed to wander on a plate pre-conditioned with 50 uL of 1000× streptomycin for 2 hours to kill any bacteria that might produce a false positive attractant. The nematodes were then washed 3 times, and the supernatant from the last wash was placed in a copper chamber, as the control, 1 cm from the border of the 10 cm plate. The nematodes were suspended in M9 within the copper chamber, 1 cm from the border opposite the control chamber. After 6 hours, they were subsequently removed and replaced with 3 μL of 1M sodium azide. 100 C. elegans adult males were isolated overnight, washed several times in ddH2O, and placed at the center of the agar plate. After several hours, males paralyzed within 2 cm of each region were scored. The Chemotaxis Index (Bargmann et al., Cell 74:515-27 (1993), which is hereby incorporated by reference in its entirety) was then used to score male chemotaxis to either point source.

[5] = tested on: C. elegans dauer larvae; assay: Dispersal assay, C. elegans dauer; format: in vivo; conditions: for dispersing nematodes, normalized to percent of the positive control response: physiological concentration, with 0.25% E. coli (HB101), positive control dauer conditioned medium; for substitution for ascr#2 in the C. elegans dispersal blend: in vivo
Procedure: C. elegans dauer juveniles were washed with MILLI-Q water 3 times, placed into 6 cm petri dishes with a small amount of water, and rested overnight. Approximately 200-300 nematodes in 10 μl of water were placed on an agar plate, to which 2 μl of treatment was added. The liquid culture that produced 60% dauer animals was centrifuged, filtered with a 0.45 μm filter, and used as a positive control for dispersal. Thereafter, media were lyophilized and resuspended in MILLI-Q water 5 times. 2 μl to 10 μl of nematode suspension was used for the assay. As a negative control, 0.5% E. coli (HB101) was prepared in S-complete, lyophilized, and adjusted to the final volume of 0.25% E. coli in the assay.
Nematodes were quantified using Image J software (Image Processing and Analysis in Java, National Institutes of Health). The number of nematodes visualized and counted using Image J is illustrated in FIG. 63B. Nematodes inside the circle were subtracted manually from the total number of worms counted because of the location of their placement. Each treatment was replicated 9-11 times. The graph was normalized to the positive control, the dauer conditioned medium.

[6] = tested on: C. elegans; conditions: in vivo; cited from earlier work
[7] = tested on: Panagrellus redivivus; assay: Ascaroside function (Table 12), Panagrellus redivivus; format: in vivo
Procedure: as §1

[8] = tested on: C. elegans; assay: Ascaroside function (Table 12), C. elegans; format: in vivo, Caenorhabditis elegans; parameters: key to Attract Females/Herm. / Promote Dauer Formation / Attract Males: A very strong result of affecting nematode behavior is designated in the table as “strong.”
Procedure: as §1

[9] = tested on: S. feltiae IJs; assay: Dispersal assay, S. feltiae IJs; format: in vivo; conditions: physiologically relevant concentrations
Procedure: S. feltiae IJs were washed with MILLI-Q water three times and incubated in 6 cm petri dishes for […] with a small amount (4-5 ml) of MILLI-Q water. Nematodes were placed the following day on a 10.7 g/L agar with 1010 g/cm^2 gel strength (PhytoTechnology Lab. Shawnee Mission, Kans.). Nematode behavior was assayed on multiple plates with internal plate replicates to rule out the possibility that behavior was affected by plate composition. Approximately 300 IJs in 10 μl water were placed on an agar medium and the test compounds or extracts (1-2 μl) were placed into the nematode suspension. Upon absorption (˜15 minutes) of the liquid, the freely moving nematodes were video recorded for 5-10 minutes. Dispersal behavior is temperature and season dependent. During winter, the assay is effective at room temperature (22±1° C.). During summer, the assay requires a temperature controlled environment due to the effects on nematode behavior above 23° C.
For entomopathogenic nematodes (EPN), insect cadavers are known to promote dispersal behavior of the IJ stage (Shapiro-Ilan et al., J. Invertebr. Pathol. 83:270-72 (2003), which is hereby incorporated by reference in its entirety). An assay was therefore developed to identify compounds in consumed insect cadavers that promote dispersal. Approximately 300 IJs of S. feltiae in 10 μl of water were placed on an agar plate (FIG. 64B). […]

[10] = tested on: Steinernema riobrave, S. diaprepesi, S carpocapse; assay: Ascaroside function (Table 12), Steinernema riobrave group; format: in vivo, Steinernema spp.
Procedure: as §1

[11] = tested on: C. elegans; conditions: cited from earlier work; for most active amount for attraction in C. elegans: from 1 μM concentration
[12] = tested on: Heterorhabditis bacteriophora, H. zealandica, H. floridensis; assay: Ascaroside function (Table 12), Heterorhabditis; format: in vivo, Heterorhabditis spp.; conditions: Heterorhabditis bacteriophora, H. zealandica, H. floridensis
Procedure: as §1

[13] = tested on: Meloidogyne javanica, M. floridensis, M. incognita, M. hapla; assay: Ascaroside function (Table 12), root-knot nematodes; format: in vivo, Meloidogyne spp.; conditions: Meloidogyne javanica, M. floridensis, M. incognita, M. hapla
Procedure: as §1

| Compound | Dispersal (of dauer larvae, infectious juveniles) [1] | Attract Males [2] | preference for areas conditioned by ascaroside [3] | C. elegans male chemotaxis to a point source [4] | dispersing nematodes, normalized to percent of the positive control response [5] [%] | dauer-inducing activity [6] | Attract Males [7] | Attract Males [8] | Dispersal (of dauer larvae, infectious juveniles) [8] | Promote Dauer Formation [8] | dispersal activity when tested alone [9] | Dispersal (of dauer larvae, infectious juveniles) [10] | most active amount for attraction in C. elegans [11] [pmol] | amount eliciting C. elegans male attraction from a distance (as low as) [4] | other results |
| --- | --- | --- | --- | --- | --- | --- | --- | --- | --- | --- | --- | --- | --- | --- | --- |
| C[C@H](CC/C=C/C(=O)Nc1ccc(C(=O)O)cc1)O[C@@H]1O[C@@H](C)[C@H](O)C[C@H]1O [ascr#8] | ascr#8 | ascr#8 | preferred | not active | 50 | promote dauer entry | ascr#8 | ascr#8 | ascr#8 | ([strong]) |  |  |  |  | Attract Females/Herm. [7]: ascr#8 |
| C[C@H](CC(=O)O)O[C@@H]1O[C@@H](C)[C@H](O)C[C@H]1O [ascr#11] |  |  |  |  |  |  |  |  |  |  | did not have activity | ascr#11 |  |  |  |
| CC1O[C@@H](O[C@H](C)CCCC/C=C/C(=O)O)[C@@H](O)C[C@H]1O (stereo partly shown) [ascr#3] | ascr#3 | ascr#3 | preferred | chemotax towards |  | promote dauer entry | ascr#3 | ascr#3 |  | ([strong]) |  |  | ~1 | ≤ 5 femtomol | hermaphrodite repulsion ([11]; in vivo): repels hermaphrodites; also recorded: strongly deter; male attraction ([11]; in vivo): strongly attracts males; Repel Females/Herm. [8]: ascr#3 |
| C[C@H](CCC(=O)O)O[C@@H]1O[C@@H](C)[C@H](O)C[C@H]1O [ascr#9] | ascr#9 |  | preferred |  |  |  | ascr#9 | ascr#9 |  |  | did not have activity | ascr#9 |  |  | Dispersal (of dauer larvae, infectious juveniles) [12]: ascr#9; Dispersal (of dauer larvae, infectious juveniles) [13]: ascr#9; Repel Females/Herm. [13]: ascr#9; substitution for ascr#2 in the C. elegans dispersal blend [5]: can replace; substitution for ascr#2 in the C. elegans dispersal blend ([5]; listed as Ascr#9): able to substitute |
| CC(=O)CCC[C@@H](C)O[C@@H]1O[C@@H](C)[C@H](O)C[C@H]1O [ascr#2] | ascr#2 |  |  | chemotax towards | 40 | promote dauer entry |  | ascr#2 | ascr#2 | ([strong]) |  |  | ~1 | ≤ 500 attomol |  |
